According to patent publication US20260297016A1, “THERAPEUTIC COMPOUNDS” (REGENTS OF THE UNIVERSITY OF MINNESOTA, priority 2023, published 2026):

Experiments:
human PPARα = molecular target: T1, human PPARα (Homo sapiens, UniProt Q07869); experiment: Cell-based Luciferase Assay, human PPARα agonist activity (Indigo Biosciences hPPARα IB00111); conditions: for activation at 0.5 µM: read-out: % PPAR-alpha AGONISM, % at 0.5 μm; for activation at 5 µM: read-out: % PPAR-alpha AGONISM, % at 5 μm; for activation at 50 µM: read-out: % PPAR-alpha AGONISM, % at 50 μm
T1 construct: borders undisclosed
T1 sequence (Q07869 1-468): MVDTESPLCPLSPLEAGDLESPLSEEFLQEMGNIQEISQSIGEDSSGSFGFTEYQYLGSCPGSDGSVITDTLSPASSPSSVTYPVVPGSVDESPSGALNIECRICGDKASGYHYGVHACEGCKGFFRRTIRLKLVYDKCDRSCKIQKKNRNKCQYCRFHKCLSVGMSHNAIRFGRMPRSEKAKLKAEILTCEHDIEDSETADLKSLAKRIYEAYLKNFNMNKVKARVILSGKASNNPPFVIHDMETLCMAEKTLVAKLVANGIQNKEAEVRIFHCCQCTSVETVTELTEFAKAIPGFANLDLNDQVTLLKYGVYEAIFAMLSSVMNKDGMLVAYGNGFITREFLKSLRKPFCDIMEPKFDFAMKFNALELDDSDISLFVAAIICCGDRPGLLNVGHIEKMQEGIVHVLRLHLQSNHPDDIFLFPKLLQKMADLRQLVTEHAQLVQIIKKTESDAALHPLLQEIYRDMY
Description: Cell-based Luciferase Assay. […] Luminescence was quantified using a GloMax Explorer (Promega).

STING = molecular target: T2, STING (Homo sapiens, UniProt Q86WV6, G230A/H232R/R293Q/R71H); experiment: IRF-Lucia Reporter STING Inhibition Assay (THP-1 Lucia ISG cells); assay type: cell-based; conditions: 1 μM 2,3-cGAMP, 20 hours
T2 construct: THP-1 Lucia ISG cells (InvivoGen, thpl-isg); host or cells: THP-1 Lucia ISG cells
Method: IRF-Lucia Reporter STING Inhibition Assay. […] Cells were incubated at 37° C. in a 5% CO2 atmosphere with varying concentrations of test compound for 1.5 hours, followed by treatment with 1 μM 2,3-cGAMP (InvivoGen, tlrl-nacga23-02) and incubated for 20 hours. A 20 μL aliquot of cell suspension was added to 50 μL. QUANTI-Luc™ reagent (InvivoGen, rep-qlc4lg2), and the resulting luminescence is measured by a GloMax Explorer (Promega) with a 0.1 second read time.

T2 sequence (Q86WV6 whole entry R71H/G230A/H232R/R293Q): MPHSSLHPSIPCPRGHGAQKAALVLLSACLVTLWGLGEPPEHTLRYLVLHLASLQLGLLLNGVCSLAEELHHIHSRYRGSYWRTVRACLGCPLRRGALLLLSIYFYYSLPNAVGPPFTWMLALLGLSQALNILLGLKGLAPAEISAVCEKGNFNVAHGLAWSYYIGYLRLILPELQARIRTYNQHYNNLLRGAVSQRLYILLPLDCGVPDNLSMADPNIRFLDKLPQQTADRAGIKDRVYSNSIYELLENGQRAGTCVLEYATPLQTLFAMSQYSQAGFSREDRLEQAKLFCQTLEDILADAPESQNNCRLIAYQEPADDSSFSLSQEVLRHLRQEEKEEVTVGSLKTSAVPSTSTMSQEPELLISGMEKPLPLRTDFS

SMILES | PPAR-alpha agonism of the positive control (human PPARα; 90 nM) | cytotoxicity of the positive control (human PPARα; 90 nM) | activation at 0.5 µM (human PPARα) [%] | activation at 5 µM (human PPARα) [%] | activation at 50 µM (human PPARα) [%] | % STING INHIBITION, % at 12.5 μm (STING) [%] | % STING INHIBITION, % at 25 μm (STING) [%] | % STING INHIBITION, % at 50 μm (STING) [%]
CC(C)(Sc1ccc(CCN(CCCCC2CCCCC2)C(=O)NC2CCCCC2)cc1)C(=O)O [GW7647, reference compound] | full agonism | without signs of cytotoxicity |  |  |  |  |  | 
O=C(O)c1cc(F)cc(NCc2ccc(-c3ccc(Cl)cc3)cc2)c1 [Example 18, 3-(((4′-Chloro-[1,1′-biphenyl]-4-yl)methyl)amino)-5-fluorobenzoic acid] |  |  | 38.6 | 80 | 87.8 |  |  | 
Cc1cc(F)ccc1-c1ccc(CNc2ccc(O)c(C(=O)O)c2)cc1 [Example 41, 5-(((4′-Fluoro-2′-methyl-[1,1′-biphenyl]-4-yl)methyl)amino)-2-hydroxybenzoic acid] |  |  |  |  |  | 25 | 47 | 80
CC(C)(C)c1ccc(-c2ccc(CNc3ccc(O)c(C(=O)O)c3)cc2)cc1 [Example 36, 5-(((4′-(tert-Butyl)-[1,1′-biphenyl]-4-yl)methyl)amino)-2-hydroxybenzoic acid] |  |  |  |  |  | 0 | 0 | >95
O=C(O)c1cc(F)cc(NCc2cc(Cl)c(-c3ccc(C(F)(F)F)cc3)c(Cl)c2)c1 [Example 10, 3-(((2,6-Dichloro-4′-(trifluoromethyl)-[1,1′-biphenyl]-4-yl)methyl)amino)-5-fluorobenzoic acid] |  |  | 0 | 37.2 | 17.4 |  |  | 
O=C(O)c1cc(NCc2ccc(-c3ccc(F)c([N+](=O)[O-])c3)cc2)ccc1O [Example 38, 5-(((4′-Fluoro-3′-nitro-[1,1′-biphenyl]-4-yl)methyl)amino)-2-hydroxybenzoic acid] |  |  |  |  |  | 0 | 39 | 90
O=C(O)c1cc(F)cc(NCc2csc(-c3ccc(C(F)(F)F)cc3)n2)c1 [Example 25, 3-fluoro-5-(((2-(4-(trifluoromethyl)phenyl)thiazol-4-yl)methyl)amino)benzoic Acid] |  |  | 21.7 | 88.7 | 42.4 |  |  | 
N#Cc1ccc(-c2ccc(CNc3cc(F)cc(C(=O)O)c3)cc2)cc1 [Example 14, 3-(((4′-Cyano-[1,1′-biphenyl]-4-yl)methyl)amino)-5-fluorobenzoic Acid] |  |  | 7 | 58.7 | 83.8 |  |  | 
O=C(O)c1cc(F)cc(NCc2ccc(-c3ccccc3)cc2)c1 [Example 8, 3-(([1,1′-Biphenyl]-4-ylmethyl)amino)-5-fluorobenzoic Acid] |  |  | 17.6 | 50.3 | 95.2 |  |  | 
O=C(O)c1cccc(NCc2cn(-c3ccc(C(F)(F)F)cc3)nn2)c1 [Example 27, 3-(((1-(4-(trifluoromethyl)phenyl)-1H-1,2,3-triazol-4-yl)methyl)amino)benzoic Acid] |  |  | 51.1 | 94.3 | 58.5 |  |  | 
O=C(O)c1cc(NCc2ccc(-c3ccc(C(F)(F)F)cc3)cc2)ccc1F [Example 5, 2-Fluoro-5-(((4′-(trifluoromethyl)-[1,1′-biphenyl]-4-yl)methyl)amino)benzoic acid] |  |  | 67.4 | 92.5 | 54.4 |  |  | 
Cc1cc(CNc2cc(F)cc(C(=O)O)c2)ccc1-c1ccc(C(F)(F)F)cc1C [Example 12, 3-(((2,2′-Dimethyl-4′-(trifluoromethyl)-[1,1′-biphenyl]-4-yl)methyl)amino)-5-fluorobenzoic Acid] |  |  | 14.1 | 46.3 | 26.5 |  |  | 
O=C(O)c1cc(F)cc(NCc2cn(-c3ccc(F)cc3)nn2)c1 [Example 30, 3-fluoro-5-(((1-(4-fluorophenyl)-1H-1,2,3-triazol-4-yl)methyl)amino)benzoic Acid] |  |  | 9.6 | 19.1 | 48.8 |  |  | 
COc1ccc(-c2ccc(CNc3cccc(C(=O)O)c3)cc2)cc1 [Example 3, 3-(((4′-Methoxy-[1,1′-biphenyl]-4-yl)methyl)amino)benzoic acid] |  |  | 32.9 | 112 | 98.3 |  |  | 
COc1ccc(-c2ccc(CNc3cc(F)cc(C(=O)O)c3)cc2)cc1 [Example 16, 3-Fluoro-5-(((4′-methoxy-[1,1′-biphenyl]-4-yl)methyl)amino)benzoic acid] |  |  | 38.2 | 106 | 96 |  |  | 
O=C(O)c1cc(F)cc(NCc2cn(-c3ccc(C(F)(F)F)cc3)nn2)c1 [Example 29, 3-fluoro-5-(((1-(4-(trifluoromethyl)phenyl)-1H-1,2,3-triazol-4-yl)methyl)amino)benzoic Acid] |  |  | 27 | 139 | 91 |  |  | 
O=C(O)c1cc(F)cc(NCc2cnc(-c3ccc(C(F)(F)F)cc3)s2)c1 [Example 24, 3-fluoro-5-(((2-(4-(trifluoromethyl)phenyl)thiazol-5-yl)methyl)amino)benzoic Acid] |  |  | 15.7 | 83.3 | 74.9 |  |  | 
O=C(O)c1cccc(NCc2ccc(-c3ccc(C(F)(F)F)cc3)cc2)c1 [Example 2, 3-(((4′-(Trifluoromethyl)-[1,1′-biphenyl]-4-yl)methyl)amino)benzoic acid] |  |  | 74.7 | 103 | 27.4 |  |  | 
O=C(O)c1cc(F)cc(NCc2ccc(-c3ccc(C(F)(F)F)cc3)cc2O)c1 [Example 9, 3-Fluoro-5-(((3-hydroxy-4′-(trifluoromethyl)-[1,1′-biphenyl]-4-yl)methyl)amino)benzoic Acid] |  |  | 8 | 49.6 | 46.8 |  |  | 
Cc1cc(C(F)(F)F)ccc1-c1ccc(CNc2cc(F)cc(C(=O)O)c2)cc1 [Example 13, 3-Fluoro-5-(((2′-methyl-4′-(trifluoromethyl)-[1,1′-biphenyl]-4-yl)methyl)amino)benzoic Acid] |  |  | 38.3 | 47.4 | 27.5 |  |  | 
O=C(O)c1cccc(NCc2ccc(-c3ccc(F)cc3)cc2)c1 [Example 1, 3-(((4′-Fluoro-[1,1′-biphenyl]-4-yl)methyl)amino)benzoic acid] |  |  | 35.6 | 125 | 55.1 |  |  | 
O=C(O)c1ccc(F)c(NCc2ccc(-c3ccc(C(F)(F)F)cc3)cc2)c1 [Example 7, 4-Fluoro-3-(((4′-(trifluoromethyl)-[1,1′-biphenyl]-4-yl)methyl)amino)benzoic acid] |  |  | 6.6 | 98 | 68.1 |  |  | 
O=C(O)c1cccc(NCc2cn(-c3ccc(F)cc3)nn2)c1 [Example 28, 3-(((1-(4-fluorophenyl)-1H-1,2,3-triazol-4-yl)methyl)amino)benzoic Acid] |  |  | 13.1 | 21.5 | 58.6 |  |  | 
O=C(O)c1cccc(NCc2ccc(-c3ccc(C(F)(F)F)cc3)cc2)c1F [Example 4, 2-Fluoro-3-(((4′-(trifluoromethyl)-[1,1′-biphenyl]-4-yl)methyl)amino)benzoic acid] |  |  | 73.7 | 120 | 20.9 |  |  | 
O=C(O)c1cc(F)cc(NCc2csc(-c3ccc(F)cc3)n2)c1 [Example 26, 3-fluoro-5-(((2-(4-fluorophenyl)thiazol-4-yl)methyl)amino)benzoic Acid] |  |  | 10.6 | 14.2 | 50 |  |  | 
O=C(O)c1cc(F)cc(NCc2ccc(-c3ccc(C4CCCC4)cc3)cc2)c1 [Example 20, 3-(((4′-Cyclopentyl-[1,1′-biphenyl]-4-yl)methyl)amino)-5-fluorobenzoic acid] |  |  | 38.2 | 58.5 | 48 |  |  | 
Cc1ccc(-c2ccc(CNc3cc(F)cc(C(=O)O)c3)cc2)cc1 [Example 19, 3-Fluoro-5-(((4′-methyl-[1,1′-biphenyl]-4-yl)methyl)amino)benzoic acid] |  |  | 40.6 | 101 | 98.9 |  |  | 
O=C(O)c1cc(F)cc(NCc2ccc(-c3ccc(C(F)(F)F)cc3)cn2)c1 [Example 22, 3-Fluoro-5-(((5-(4-(trifluoromethyl)phenyl)pyridin-2-yl)methyl)amino)benzoic Acid] |  |  | 22.1 | 62.2 | 42.1 |  |  | 
